# In patent US20160039852A1, “THERAPEUTIC USES OF BISPHOSPHONATES” (THE UNIVERSITY OF SHEFFIELD, priority 2013, published 2016):
# Like-named read-outs stand apart in the source and are kept apart here.
# Assays:
# [1] = test system: human mesenchymal stem cells (hMSC); experiment: Immunostaining of γH2AX DNA damage foci (double stranded breaks) in hMSC; type: cell-based; settings: for effect of Zol on DNA damage after addition of prenylation intermediate: 1Gy, Zol plus FOH or GGOH (33 μM); for number of γH2AX DNA damage foci after irradiation: 1Gy irradiation, compound at 1 μM, foci at 4 h (Zol also 12, 24 h) versus PBS
# Description: DNA damage was induced by exposing hMSC to ^137Cs Gamma source. Cells were washed with PBS and fixed with 4% Para-formaldehyde for […]. Cells were then washed with PBS permeabilized with 0.5% Triton-X (Sigma, UK) for […] and blocked with 5% normal goat serum (DAKO, Glostrup, Denmark) in PBS for 1 hr. This was followed by incubation with primary antibody, anti-phospho histone H2AX (Ser139) (Millipore, Massachusetts, USA) used at 1:800 in 5% normal goat serum, overnight at 4° C. Cells were then washed in PBS and incubated in secondary Anti mouse IgG Fluorescein Isothiocyanate (FITC) conjugated (Insight Biotechnology, Santa Cruz, USA) at 1:200 in PBS for 1 hour at room temperature. The cover-slips were mounted on slides with mounting media (VectaShield) containing 4',6-diamidino-2-phenylindole (DAPI) to stain the nuclei. […] Cells were viewed using in an Inverted Zeiss LSM 510 NLO microscope equipped with Argon (Ar) laser (488 nm) 30 mW to image the fluorescent marker FITC and UV lamp to image DAPI stained nuclei. Five to seven fields consisting of 25 cells in total were randomly selected from a tile scan (20×) and individual cells viewed at 63× were then scored for γH2AX DNA damage foci using ImageJ 1.45 software (http://rsbweb.nih.gov/ij/). One of the factors affecting cellular lifespan is accumulation of DNA damage.
# [2] = test system: zebrafish embryo caudal fin; experiment: Zebrafish tail amputation and regeneration following irradiation; type: in vivo, Zebrafish (Danio Rerio H); settings: irradiated embryos, Zol plus FOH or GGOH
# Description: Embryos from wild-type Zebrafish (Danio Rerio H) AB strain were collected at 16 cell stage (˜1.5 hours post fertilisation (hpf)) and grown in E3 Medium at 28° C. Embryos were treated with Zoledronate (1 μM) and/or FOH, GGOH at 24 hpf. DNA damage was induced by exposure to ^137Cs Gamma source at 48 hpf and after irradiation the embryo tails were amputated and the embryos were then incubated at 28° C. for a further 12 hrs in the presence of the chemicals. At the end of this period the chemicals were washed off and the embryos were incubated in fresh medium with no chemicals. The embryos were grown up to 120 hpf, following which they were fixed in 4% PFA overnight and then mounted in 100% glycerol. The tail lengths of embryos were measured taking the anal region as starting reference point and the end of the fin fold as the ending point of measurement.
# FPP synthase = molecular target: T1, FPP synthase (Homo sapiens, UniProt P14324); experiment: Prenyl synthase assay (FPP synthase activity); type: biochemical
# T1 sequence (P14324 1-419): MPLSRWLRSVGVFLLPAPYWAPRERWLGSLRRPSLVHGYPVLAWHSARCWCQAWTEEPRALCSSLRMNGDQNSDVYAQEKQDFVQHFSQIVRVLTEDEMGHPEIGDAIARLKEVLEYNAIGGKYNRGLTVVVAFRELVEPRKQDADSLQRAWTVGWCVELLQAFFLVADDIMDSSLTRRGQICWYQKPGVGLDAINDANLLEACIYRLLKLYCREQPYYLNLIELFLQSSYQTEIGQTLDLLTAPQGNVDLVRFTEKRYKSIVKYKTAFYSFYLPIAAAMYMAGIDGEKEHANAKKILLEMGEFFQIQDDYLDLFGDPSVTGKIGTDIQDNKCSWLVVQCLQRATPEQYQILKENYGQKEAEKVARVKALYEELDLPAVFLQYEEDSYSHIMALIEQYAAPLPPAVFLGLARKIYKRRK
# Description: FPP synthase activity was measured by the method of Reed and Rilling (Reed, B. C. & Rilling, H. C. (1976) Biochemistry 15, 3739-3745) with modifications. Assays were set up such that the final volume was 100 ul. The assay conditions were 50 mM Tris pH7.7, 2 mM MgCl2, 0.5 mM TCEP, 20 μg/ml BSA. For FPP synthase assays the final enzyme concentration was 10 nM. All substrates were at 10 μM final concentration each substrate, all reactions were with IPP (14C-IPP, 400Kq/μMol American Radiochem. Corp). For FPP synthase GPP was the second substrate. Bisphosphonate was added as 1/10th volume of a 10× stock solution and allowed to preincubate for 10 minutes with the enzyme in a volume of 80 ul and the reaction started by the addition of 20 ul of the combined substrate. The reaction was allowed to proceed for 4 minutes at 37° C. before being terminated by the addition of 0.2 ml of conc. HCI/Methanol (1:4) and incubated for a further 10 mins at 37° C. The reaction mixtures were then extracted with 0.4 ml of immiscible scintillation fluid (Microscint E, Perkin Elmer) to separate reaction products from unused substrate and were counted directly with a microbeta scintillation counter (Perkin Elmer).
# [3] = test system: human mesenchymal stem cells (hMSC); experiment: hMSC growth kinetics, cumulative population doublings with time in culture; type: cell-based; settings: for population doublings after which cultures stopped proliferating: hMSC, from the start of the treatment, PBS cultures senesced after 21-25 PDs, n=3; for hMSC life span / time of proliferation in culture: versus PBS control
smiles,measurement,setting,value
"CC(C)=CCC/C(C)=C/CC/C(C)=C/CO [FOH, Trans, trans farnesol]",effect of Zol on DNA damage after addition of prenylation intermediate,[1],reversed
same,Zol-mediated fin repair process after addition of FOH or GGOH,[2],abrogated
"O=P(O)(O)C1CC2CCCNC2C1P(=O)(O)O (stereo not shown) [Compound A, 2-Azabicyclo-[4.3.0]nonane-8,9-diphosphonic acid]",number of γH2AX DNA damage foci after irradiation,[1],significant decrease
same,number of γH2AX DNA damage foci after irradiation,[1]; listed as compound A,significant reduction in DNA damage
same,affinity for / inhibitory potency on FPP synthase,FPP synthase,high affinity
same,affinity for / inhibitory potency on FPP synthase,FPP synthase; listed as compound A,high
"CC(C)=CCC/C(C)=C/CC/C(C)=C/CC/C(C)=C/CO [GGOH, geranylgeraniol]",effect of Zol on DNA damage after addition of prenylation intermediate,[1],reversed
same,Zol-mediated fin repair process after addition of FOH or GGOH,[2],abrogated
O=P(O)(O)C(O)(Cc1cccnc1)P(=O)(O)O [Risedronate],number of γH2AX DNA damage foci after irradiation,[1],enhance repair of DNA damage
same,population doublings after which cultures stopped proliferating,[3],29-34 PDs
same,hMSC life span / time of proliferation in culture,[3],extend hMSC lifespan
"O=P(O)(O)C1CC2CCCNC2C1P(=O)(O)O (stereo not shown) [Compound B, 2-Azabicyclo-[4.3.0]nonane-8,9-diphosphonic acid]",number of γH2AX DNA damage foci after irradiation,[1],not
same,affinity for / inhibitory potency on FPP synthase,FPP synthase,low affinity
same,affinity for / inhibitory potency on FPP synthase,FPP synthase; listed as compound B,low
"O=P(O)(O)C(F)(Cc1cnc2ccccn12)P(=O)(O)O [Compound C, 1-fluoro-2-(imidazo-[1,2-a]pyridine-3-yl)-ethyl-bisphosphonic acid]","DNA repair (γH2AX DNA damage foci), concentration dependence","[1]; Compound C at increasing concentrations, 4 hours after irradiation",enhances DNA repair in a dose dependent manner
same,affinity for / inhibitory potency on FPP synthase,FPP synthase,high inhibitory potency
NCCCC(O)(P(=O)(O)O)P(=O)(O)O [Alendronate],number of γH2AX DNA damage foci after irradiation,[1],enhance repair of DNA damage
same,population doublings after which cultures stopped proliferating,[3],27-30 PDs
same,hMSC life span / time of proliferation in culture,[3],extend hMSC lifespan
